Structures can show the parent of a compound that is named as a salt. Marks after values point to notes of the source that are not given here.
Experiments:
[1] = test system: mice to which a sleeping dose of pentobarbital (45 mg/kg, i.p.) was administered; test: Pentobarbital-induced sleep test; details: pentobarbital 45 mg/kg i.p. 45 min after oral sample; DH 30 mg/kg, lime extracts 100 mg/kg, lemon extracts 300 mg/kg; n=10
[2] = test system: C57BL/6N mice; test: Sleep architecture analysis (EEG/EMG); format: in vivo; details: Example 1 100 mg/kg, Example 2 300 mg/kg, zolpidem 10 mg/kg p.o.
Method: After the accommodation period of 1 week, electrodes were inserted into the
C57BL/6N mice for measurement of electroencephalograms (EEGs) and electromyograms (EMGs). After anesthetizing the mouse with pentobarbital (50 mg/kg, i.p.), the head was fixed in a stereotaxic instrument. After incising the subcutaneous connective tissue, a mouse EEG/EMG Headmount (Pinnacle Technology Inc, Oregon, USA) was inserted for EEG and EMG recording. After fixing with dental cement followed by suturing and disinfection, antibiotics were injected for 3 days to prevent inflammation. The mice were allowed to recover for 7 days. For accommodation to the measurement environment, the recording apparatus was connected from 4 days prior to the measurement. After orally administering the sample and waiting for 5 minutes for sedation, EEG and EMG were recorded for 24 hours from 17:00 using PAL-8200 (Pinnacle Technology Inc., Oregon, USA). Sampling rate was set at 200 Hz (epoch time: 10 s). Filtering range was 0.1-25 Hz for EEG and 10-100 Hz for EMG. Sleep architecture was analyzed according to the fast Fourier transform (FFT) algorithm using SleepSign (Ver. 3.0, Kissei Comtec, Nagono, Japan).
Sleep architecture analysis was conducted to evaluate the effect of the roasted citrus byproduct extracts according to an exemplary embodiment of the present disclosure on the quantity and quality of sleep. […]

SMILES	Sleep duration (min) [1]	Sleep latency (min) [1]	delta activity during non-REM sleep [2]	time after oral administration for which NREM sleep was significantly increased ([2]; 24 h EEG recording) [h]
CN(C)CCC=C1c2ccccc2COc2ccccc21 [Doxepin hydrochloride (DH), Doxepin hydrochloride]	121.2*** min	2.9*** min		
Cc1ccc(-c2nc3ccc(C)cn3c2CC(=O)N(C)C)cc1 [zolpidem]			significantly decreased delta activity	6

From patent publication US20240382552A1, “COMPOSITION FOR PREVENTING, AMELIORATING OR TREATING SLEEP DISORDER OR INSOMNIA, CONTAINING EXTRACT OF ROASTED CITRUS BYPRODUCT AS ACTIVE INGREDIENT” (priority 2021, published 2024)
